Consider 19 molecules from ChEMBL document CHEMBL1201862, “PubChem BioAssay data set” (2004).

Assay [1] concerns the target T1, E3 ubiquitin-protein ligase XIAP (Homo sapiens, UniProt P98170). The assay can be described thus: Counter Screen using XIAP-Bir3 for Chemical Antagonists of Bir1/2 domains of IAP-family anti-apoptotic proteins. [Related pubchem assays (depositor defined):AID1018, AID1449, AID1514, AID1638, AID1749, AID1750, AID488957, AID488963]. On the technique in general: The purpose of a counterscreen is to sort out artefacts and off-target activity.

For assay [2], the target named is T1, E3 ubiquitin-protein ligase XIAP. In words: small molecules displacing peptide from XIAP – biochemical, IAP family, fluorescence polarization (AID 1018). It is filed as functional.
Assay [3] deals with T2, Heat shock factor protein 1 (Mus musculus, UniProt P38532).
T2 sequence (P38532 whole entry): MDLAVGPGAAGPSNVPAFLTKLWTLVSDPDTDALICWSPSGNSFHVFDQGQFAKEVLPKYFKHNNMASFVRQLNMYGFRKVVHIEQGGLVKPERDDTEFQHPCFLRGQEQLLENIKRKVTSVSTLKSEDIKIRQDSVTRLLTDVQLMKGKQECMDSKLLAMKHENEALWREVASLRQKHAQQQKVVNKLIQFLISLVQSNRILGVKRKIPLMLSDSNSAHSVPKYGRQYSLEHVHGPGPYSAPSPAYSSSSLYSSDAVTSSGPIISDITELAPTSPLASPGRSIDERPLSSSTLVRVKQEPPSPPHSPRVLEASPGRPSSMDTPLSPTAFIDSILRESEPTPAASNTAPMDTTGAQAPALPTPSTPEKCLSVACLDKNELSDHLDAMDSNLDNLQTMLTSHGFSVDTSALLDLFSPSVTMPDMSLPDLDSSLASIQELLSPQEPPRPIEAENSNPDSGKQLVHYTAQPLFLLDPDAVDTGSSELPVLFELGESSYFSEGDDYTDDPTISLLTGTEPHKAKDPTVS
The assay can be described thus: enhancement of HSF1-driven luciferase signal – cell-based, NIH3T3, luminescence, dose retest, confirmation (AID 435004).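 Further: stress induced by proteasome inhibitor MG132 added 30 min after compound; luciferase reporter driven by HSF1 response element in NIH3T3 cells; actives raise luminescence as potentiators of the MG132 stress response.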 Type of assay: functional.

Assay [4] in a line: M. tuberculosis H37Rv growth inhibitors, H37Rv strain (AID 1626). It is filed as functional.
In assay [5] the target is T3, Mannose-6-phosphate isomerase (Homo sapiens, UniProt P34949).
T3 sequence (P34949 whole entry): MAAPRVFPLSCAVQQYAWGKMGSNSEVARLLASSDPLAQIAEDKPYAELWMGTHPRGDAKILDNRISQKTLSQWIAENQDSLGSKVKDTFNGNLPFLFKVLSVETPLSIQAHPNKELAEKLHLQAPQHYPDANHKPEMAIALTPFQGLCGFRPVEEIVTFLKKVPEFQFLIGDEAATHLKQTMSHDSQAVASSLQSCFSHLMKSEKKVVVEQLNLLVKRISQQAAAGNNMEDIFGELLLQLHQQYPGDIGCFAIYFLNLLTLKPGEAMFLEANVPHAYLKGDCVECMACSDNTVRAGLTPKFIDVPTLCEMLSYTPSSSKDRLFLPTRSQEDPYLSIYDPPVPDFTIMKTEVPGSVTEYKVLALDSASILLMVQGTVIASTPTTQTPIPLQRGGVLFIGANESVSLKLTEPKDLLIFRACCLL
The assay can be described thus: MPI inhibition at elevated mannose 6-phosphate – biochemical, fluorescence intensity, high mannose 6-phosphate, primary screen (AID 1220).

Assay [6] is described as follows: Dd2 parasite growth inhibition in erythrocytes – SYBR Green, dry powder samples, set 9, dose response (AID 1159568). It is filed as functional, cell-based.
Assay [7] can be described thus: P. falciparum Dd2 growth inhibitors, dose response, SYBR Green, cherry-picked samples (AID 1159567). It is filed as functional, cell-based.
Assay [8] addresses T4, Histone-lysine N-methyltransferase NSD2 (Homo sapiens, UniProt O96028).
T4 sequence (O96028 whole entry): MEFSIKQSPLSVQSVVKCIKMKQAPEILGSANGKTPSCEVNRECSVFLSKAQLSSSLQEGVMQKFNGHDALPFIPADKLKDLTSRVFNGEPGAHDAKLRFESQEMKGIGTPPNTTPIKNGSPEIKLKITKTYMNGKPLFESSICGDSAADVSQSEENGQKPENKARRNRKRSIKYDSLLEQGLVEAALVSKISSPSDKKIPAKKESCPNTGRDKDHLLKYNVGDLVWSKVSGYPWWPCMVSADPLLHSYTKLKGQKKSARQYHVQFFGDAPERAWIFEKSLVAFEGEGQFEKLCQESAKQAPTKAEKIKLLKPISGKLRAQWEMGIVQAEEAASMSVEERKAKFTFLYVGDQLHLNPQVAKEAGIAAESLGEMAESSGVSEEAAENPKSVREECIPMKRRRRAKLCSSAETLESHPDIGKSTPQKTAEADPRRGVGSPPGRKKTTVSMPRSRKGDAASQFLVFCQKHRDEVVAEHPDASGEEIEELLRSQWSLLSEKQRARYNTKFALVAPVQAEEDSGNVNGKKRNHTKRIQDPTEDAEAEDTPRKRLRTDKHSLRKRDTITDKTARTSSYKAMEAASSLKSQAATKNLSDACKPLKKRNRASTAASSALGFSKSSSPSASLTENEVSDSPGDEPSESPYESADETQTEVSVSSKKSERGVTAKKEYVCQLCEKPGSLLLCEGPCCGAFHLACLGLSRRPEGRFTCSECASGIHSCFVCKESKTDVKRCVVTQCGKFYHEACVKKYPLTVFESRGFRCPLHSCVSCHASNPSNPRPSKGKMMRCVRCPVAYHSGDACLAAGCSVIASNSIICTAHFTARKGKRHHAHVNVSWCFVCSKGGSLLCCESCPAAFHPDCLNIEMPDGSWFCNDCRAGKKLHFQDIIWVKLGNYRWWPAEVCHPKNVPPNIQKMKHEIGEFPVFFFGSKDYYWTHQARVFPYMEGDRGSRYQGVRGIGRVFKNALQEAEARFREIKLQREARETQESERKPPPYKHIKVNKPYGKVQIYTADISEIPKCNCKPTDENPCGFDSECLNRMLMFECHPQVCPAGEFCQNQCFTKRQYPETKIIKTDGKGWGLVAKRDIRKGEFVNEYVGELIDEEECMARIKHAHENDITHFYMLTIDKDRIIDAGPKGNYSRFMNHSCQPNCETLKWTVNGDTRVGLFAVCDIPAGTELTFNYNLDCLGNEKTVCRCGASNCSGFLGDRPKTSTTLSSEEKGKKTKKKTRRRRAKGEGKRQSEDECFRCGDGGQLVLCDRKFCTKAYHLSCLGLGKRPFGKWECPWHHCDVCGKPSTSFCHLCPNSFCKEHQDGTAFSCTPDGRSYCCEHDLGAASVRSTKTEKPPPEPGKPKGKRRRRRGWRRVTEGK
It is filed as biochemical.

Assay [9] has as its target Mitogen-activated protein kinase 10 (Homo sapiens, UniProt P53779). In words: Dose response biochemical screening assay for inhibitors of c-Jun N-Terminal Kinase 3 (JNK3). [Related pubchem assays: 746 ].
Assay [10] in a line: Luminescence Cell-Based Dose Response HTS to Identify Activators of Luciferase Translation or Activity in H4 […] Cells. [Related pubchem assays: 1829 (Project Summary), 1814 (Primary HTS)]. It is filed as functional.
Assay [11] can be described thus: Luminescence Cell-Based Dose Confirmation HTS to Identify Activators of 5'UTR Stem-Loop Driven Alpha-Synuclein mRNA Translation in H4 Neuroglioblastoma Cells. [Related pubchem assays: 1829 (Project Summary), 1814 (Primary HTS)]. It is filed as functional.
In assay [12] the target is FAD-linked sulfhydryl oxidase ALR (Homo sapiens, UniProt P55789). In words: ALR-catalysed DTT oxidation blockers – biochemical, H2O2 detection, luminescence, cherry-pick, dose response (AID 493248).
In assay [13] the target is T5, COUP transcription factor 2 (Homo sapiens, UniProt P24468).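 Further: HEK293 cells transiently cotransfected with COUP-TFII expression vector and reporter; luciferase reporter luminescence driven by COUP-TFII from the pX2-168 reporter plasmid.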
T5 sequence (P24468 whole entry): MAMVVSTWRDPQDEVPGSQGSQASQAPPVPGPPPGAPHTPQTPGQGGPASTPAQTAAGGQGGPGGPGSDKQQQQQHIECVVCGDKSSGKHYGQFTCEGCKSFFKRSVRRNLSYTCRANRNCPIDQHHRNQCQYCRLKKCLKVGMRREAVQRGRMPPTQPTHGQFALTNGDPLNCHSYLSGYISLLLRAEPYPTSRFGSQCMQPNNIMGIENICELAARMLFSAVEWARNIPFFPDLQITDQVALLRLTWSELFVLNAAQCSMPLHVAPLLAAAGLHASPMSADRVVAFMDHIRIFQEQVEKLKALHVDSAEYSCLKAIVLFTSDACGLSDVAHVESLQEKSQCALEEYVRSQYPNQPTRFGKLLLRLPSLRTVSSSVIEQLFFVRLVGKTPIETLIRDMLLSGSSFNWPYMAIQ
In words: Luminescence-based cell-based high throughput dose response assay to identify inhibitors of COUP-TFII (NR2F2). It is filed as functional.

Another assay has as its system H4. The assay can be described thus: Luminescence Cell-Based Dose Response HTS to Identify Activators of 5'UTR Stem-Loop Driven Prion Protein mRNA Translation in H4 Neuroglioblastoma Cells. [Related pubchem assays: 1829 (Project Summary), 1814 (Primary HTS)]. As to conditions: Homo sapiens. It is filed as functional.
Assay [14] is described as follows: toxicity to human hepatoma HepG2 cells – cell-based, cherry-picked samples, cytotoxicity control, dose response (AID 1159577). Type of assay: functional.
Assay [15] deals with E3 ubiquitin-protein ligase Mdm2 (Homo sapiens, UniProt Q00987). In words: MDM2-luc reporter signal enhancers, multi-concentration potency testing, MDM2 ubiquitin-protein ligase inhibitor program, whole-cell format, luminescence detection, 384-well microplate (AID 1394).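 Further: MDM2 E3 inhibitors raise luminescence so EC50 is for signal enhancement.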 It is filed as functional.
Assay [16] addresses T6, Endoribonuclease toxin MazF (Escherichia coli K-12, UniProt P0AE70).
T6 sequence (P0AE70 whole entry): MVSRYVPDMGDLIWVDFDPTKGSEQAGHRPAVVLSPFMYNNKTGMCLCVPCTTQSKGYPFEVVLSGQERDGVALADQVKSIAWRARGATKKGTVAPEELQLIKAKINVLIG
In words: activation of MazEF endoribonuclease cleavage – biochemical, fluorescence, single-stranded RNA substrate, uHTS hits, dose response (AID 588481). Type of assay: functional.

The target of assay [17] is T6, Endoribonuclease toxin MazF. The assay can be described thus: substrate-only fluorescence increase artefacts – biochemical, single-stranded RNase substrate, counter-screen for MazEF activator project, dose response (AID 588502). It is filed as functional.
The target of another assay is Cytochrome P450 2C9 (Homo sapiens, UniProt P11712).

Calls of active or inactive are those of the source. Bounds are passed on as bounds.

T1 sequence (P98170 whole entry): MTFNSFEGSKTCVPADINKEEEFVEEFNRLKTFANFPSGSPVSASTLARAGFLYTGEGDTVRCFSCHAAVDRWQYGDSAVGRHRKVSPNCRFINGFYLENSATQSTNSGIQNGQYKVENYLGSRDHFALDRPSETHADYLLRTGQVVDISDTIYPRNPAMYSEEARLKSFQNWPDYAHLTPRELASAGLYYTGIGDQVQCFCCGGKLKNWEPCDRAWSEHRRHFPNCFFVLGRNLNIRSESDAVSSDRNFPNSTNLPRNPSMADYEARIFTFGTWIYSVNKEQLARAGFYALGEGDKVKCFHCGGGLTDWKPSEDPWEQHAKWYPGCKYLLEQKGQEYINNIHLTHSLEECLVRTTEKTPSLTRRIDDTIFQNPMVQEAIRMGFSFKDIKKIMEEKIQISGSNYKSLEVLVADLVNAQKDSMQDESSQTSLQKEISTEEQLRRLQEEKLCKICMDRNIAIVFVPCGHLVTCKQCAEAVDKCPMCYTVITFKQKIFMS
Mitogen-activated protein kinase 10, sequence (P53779 whole entry): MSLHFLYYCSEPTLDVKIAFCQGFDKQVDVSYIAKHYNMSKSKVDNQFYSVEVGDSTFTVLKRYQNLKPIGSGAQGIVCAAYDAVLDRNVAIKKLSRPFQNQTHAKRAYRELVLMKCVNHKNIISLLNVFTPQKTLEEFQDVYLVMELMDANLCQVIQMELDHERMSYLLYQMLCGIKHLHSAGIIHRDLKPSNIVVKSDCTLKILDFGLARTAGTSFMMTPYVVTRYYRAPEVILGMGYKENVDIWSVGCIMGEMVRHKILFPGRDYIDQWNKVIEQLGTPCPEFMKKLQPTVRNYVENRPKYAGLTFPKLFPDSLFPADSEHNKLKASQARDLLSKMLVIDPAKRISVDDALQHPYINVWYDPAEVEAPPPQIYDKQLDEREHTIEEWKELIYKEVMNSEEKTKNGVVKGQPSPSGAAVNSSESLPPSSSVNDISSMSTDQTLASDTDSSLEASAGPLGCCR
E3 ubiquitin-protein ligase Mdm2, sequence (Q00987 whole entry): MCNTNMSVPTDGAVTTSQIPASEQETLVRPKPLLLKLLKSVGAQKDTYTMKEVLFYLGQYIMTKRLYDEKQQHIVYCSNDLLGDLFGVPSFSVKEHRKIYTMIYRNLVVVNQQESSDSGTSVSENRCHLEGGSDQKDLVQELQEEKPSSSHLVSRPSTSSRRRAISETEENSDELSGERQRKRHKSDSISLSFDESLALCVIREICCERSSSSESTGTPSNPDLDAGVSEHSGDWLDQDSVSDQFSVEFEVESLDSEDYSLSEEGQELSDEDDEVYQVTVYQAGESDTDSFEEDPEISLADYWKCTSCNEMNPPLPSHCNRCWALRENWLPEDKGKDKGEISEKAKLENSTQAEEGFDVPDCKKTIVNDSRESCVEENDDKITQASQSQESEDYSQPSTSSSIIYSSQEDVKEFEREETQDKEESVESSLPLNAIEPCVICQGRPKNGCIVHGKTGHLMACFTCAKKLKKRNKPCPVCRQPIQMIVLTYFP
Cytochrome P450 2C9, sequence (P11712 whole entry): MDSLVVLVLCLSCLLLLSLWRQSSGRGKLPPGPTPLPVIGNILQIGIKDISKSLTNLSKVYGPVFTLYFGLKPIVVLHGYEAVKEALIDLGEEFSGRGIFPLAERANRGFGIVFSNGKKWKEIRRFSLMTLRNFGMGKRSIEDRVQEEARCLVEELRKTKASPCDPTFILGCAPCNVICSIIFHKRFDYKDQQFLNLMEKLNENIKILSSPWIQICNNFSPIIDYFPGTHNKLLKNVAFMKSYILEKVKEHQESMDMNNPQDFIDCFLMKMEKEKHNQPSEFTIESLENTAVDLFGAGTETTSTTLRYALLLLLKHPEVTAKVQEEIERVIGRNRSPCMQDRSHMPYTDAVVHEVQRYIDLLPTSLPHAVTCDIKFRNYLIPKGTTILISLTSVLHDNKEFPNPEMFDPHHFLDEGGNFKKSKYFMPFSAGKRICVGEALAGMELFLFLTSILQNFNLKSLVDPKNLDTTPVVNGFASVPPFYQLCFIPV
FAD-linked sulfhydryl oxidase ALR, sequence (P55789 whole entry): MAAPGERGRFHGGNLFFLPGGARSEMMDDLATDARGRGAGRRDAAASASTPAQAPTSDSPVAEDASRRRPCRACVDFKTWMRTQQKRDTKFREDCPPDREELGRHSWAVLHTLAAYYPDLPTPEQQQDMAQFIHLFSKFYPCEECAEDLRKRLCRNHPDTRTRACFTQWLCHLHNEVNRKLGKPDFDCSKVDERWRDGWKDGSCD

Take `CC(SCc1ccccc1)C(=O)NCc1ccccn1` (stereo not drawn): the IC50 (commonly the concentration that gives 50% inhibition) in assay [1] was > 100 µM (inactive); in assay [2] it was > 100 µM (not active).

Consider `Cc1cc(NC(=O)Cc2csc(-c3ccccc3)n2)ccc1Br`, for which the IC50 is > 100 µM (inactive) in assay [1] and > 100 µM (not active) in [2].

As for `Nc1cnn(Cc2ccc(F)cc2)c1`, the EC50 (usually the concentration at which the effect is half-maximal) in assay [3] was > 260 µM (inactive). The IC50 in assay [4] was > 100 µM (active).

`CC(C)N(C(=O)Nc1ccc2nccnc2c1)C(C)C`: the concentration for half-maximal inhibition (IC50) in assay [5] is > 50 µM (not active).

For `CCSc1nnc(NC(=O)c2cc(-c3ccc(C)c(C)c3O)[nH]n2)s1`, the IC50 in assay [1] is > 100 µM (inactive); in [2], > 100 µM (not active).

Take `N#Cc1ccc(-c2ccc([C@@H]3[C@@H]4CN(C(=O)Nc5ccc6c(c5)OCO6)C[C@H]3N4)cc2)cc1`: the AC50 (as a rule, the midpoint of the concentration-response curve, whichever way the signal moves) is 6.54 µM (active) in [6] and 3.41 µM (active) in assay [7].

In the case of `CNCc1ccccc1Sc1cccc(O)c1`, the AC50 in assay [8] is > 20 µM (inactive).

As to `CN1C=CC(=C2C(=O)c3ccccc3C2=O)C=C1`, in [9], the IC50 is on record as 28.5 µM (not active).

As for `C[n+]1c2n(c3ccccc31)N=C(c1ccccc1)CS2`, the EC50 was > 120 µM (not active) in assay [10], 16 µM (active) in [11] and > 120 µM (not active) with H4. Further, the AC50 in assay [12] is 1.14 µM (active). Further, the IC50 in [13] is 13.8 µM (inactive).

`COc1cccc(-c2ccc3c(c2)[C@@H]2[C@@H](CCN2C(=O)NC2CCCCC2)[C@@H](CO)N3C)c1`: the AC50 was 2.88 µM (active) in assay [7] and 41.4 µM (active) in [14].

Regarding `C[C@@H]1CCCCO[C@@H](CN(C)Cc2ccc(Cl)c(Cl)c2)[C@@H](C)CN([C@@H](C)CO)C(=O)c2cc(NS(=O)(=O)c3cccs3)ccc2O1`, the AC50 in assay [6] was 1.54 µM (active).

As for `CCN(CC)CCCN(Cc1cc2cc3c(cc2nc1O)OCO3)C(S)=NCc1ccco1`, in [8], the AC50 was > 20 µM (inactive).

`O=c1c2ccccc2oc2cc(C#CC3(O)CCCCC3)ccc12`: the IC50 in assay [13] was > 9.49 µM (active).

Turning to `CCOC(=O)c1[nH]nc2ccccc12`, the IC50 in assay [9] is recorded as > 31 µM (not active).

Take `COc1ccccc1OCC(=O)Nc1cc(S(=O)(=O)N2CCCCC2)ccc1N1CCCCC1`: the EC50 in assay [15] is reported as 6.4 µM (not active).

Take `CCN1C(=O)C(=Cc2cc(C)n(C3CC3)c2C)C(=O)N(CC)C1=S`: the IC50 in assay [5] is on record as > 50 µM (not active). The EC50 in [16] was 44.4 µM (inactive); in [17], > 99 µM (inactive).

With `O=C(Nc1ccc(-c2csnn2)cc1)C1CC1`, the EC50 in assay [15] is listed as 3.55 µM (not active). For the same molecule, the IC50 in [4] is > 100 µM (active).

`Oc1[nH]c2ccccc2c1/C=N/c1nccs1`: on Cytochrome P450 2C9, the half-maximal activity concentration (AC50) was 25.1 µM (inconclusive). Further, the IC50 in [9] is given as 46.6 µM (not active).

As for `N#C/C(=C\c1ccc(-c2ccc(C(=O)O)cc2)o1)C(=O)NCC1CCCO1` (stereo not drawn), the AC50 in [8] was > 20 µM (inactive).
